pIC50: −log10 of the molar value. Bounds are passed on as bounds.

The source of these data is patent US11780839B2, “Compounds for treating Huntington's disease” (PTC THERAPEUTICS, INC., priority 2018, dated 2023).

The assay relates to Endogenous Huntingtin Protein. The assay is described as follows: Endogenous Huntingtin Protein Assay (ELISA-based Meso Scale Discovery electrochemiluminescence). Conditions: MSD electrochemiluminescence, Table 1. It is filed as cell-based. In a few lines: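 Huntingtin was captured overnight at 4 °C on plates coated with 1 μg/mL MW1 (polyQ-expanded) or MAB2166 antibody and BSA-blocked. Detection used a rabbit monoclonal and then a SULFO-TAG goat anti-rabbit antibody (0.25 μg/mL, 1 h each, room temperature). Signal was read by electrochemiluminescence.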
In general terms: ELISA stands for enzyme-linked immunosorbent assay.
A word on the pIC50: it is −log10 of the IC50, conventionally taken in molar units. Low readings indicate a high IC50, high ones a low IC50. As for `CC1(C)C[C@H](Nc2ncc(-c3ccc(-c4cn[nH]c4)cc3O)nn2)[C@H](O)C(C)(C)N1` [Cpd 298, (3S,4S)-4-({6-[2-hydroxy-4-(1H-pyrazol-4-yl)phenyl]-1,2,4-triazin-3-yl}amino)-2,2,6,6-tetramethylpiperidin-3-ol], the pIC50 was 5.52 to 6.00. In turn, `CC1(NC2CCN(c3ncc(-c4ccc(-c5cn[nH]c5)cc4O)nn3)C2)CC1` (centres unmarked) [Cpd 340, 2-(3-{3-[(1-methylcyclopropyl)amino]pyrrolidin-1-yl}-1,2,4-triazin-6-yl)-5-(1H-pyrazol-4-yl)phenol] showed a pIC50 of no less than 7.00. Next, `CN1CCO[C@@H]2CN(c3ncc(-c4ccc(-c5cn[nH]c5)cc4O)nn3)C[C@@H]21` [Cpd 311, 2-{3-[(4aS,7aR)-4-methylhexahydropyrrolo[3,4-b][1,4]oxazin-6(2H)-yl]-1,2,4-triazin-6-yl}-5-(1H-pyrazol-4-yl)phenol]: 5.52 to 6.00; `CC1CC(NC(C)(C)C)CN1c1ncc(-c2ccc(-c3cn[nH]c3)cc2O)nn1` (centres unmarked) [Cpd 171, 2-{3-[4-(tert-butylamino)-2-methylpyrrolidin-1-yl]-1,2,4-triazin-6-yl}-5-(1H-pyrazol-4-yl)phenol]: no less than 7.00; `CN(c1ncc(-c2ccc(-c3ccncn3)cc2O)nn1)C1CC(C)(C)NC(C)(C)C1` [Cpd 102, 2-{3-[methyl(2,2,6,6-tetramethylpiperidin-4-yl)amino]-1,2,4-triazin-6-yl}-5-(pyrimidin-4-yl)phenol]: no less than 7.00.

Turning to `CC1(NCC2CCN(c3ncc(-c4ccc(-c5cn[nH]c5)cc4O)nn3)C2)CCOCC1` (centres unmarked) [Cpd 391, 2-[3-(3-{[(4-methyloxan-4-yl)amino]methyl}pyrrolidin-1-yl)-1,2,4-triazin-6-yl]-5-(1H-pyrazol-4-yl)phenol], the pIC50 is no less than 7.00.

Compound `CN1CCCC2(CCN(c3ncc(-c4ccc(-c5cn[nH]c5)cc4O)nn3)CC2)C1` [Cpd 182, 2-[3-(2-methyl-2,9-diazaspiro[5.5]undecan-9-yl)-1,2,4-triazin-6-yl]-5-(1H-pyrazol-4-yl)phenol] showed a pIC50 of less than 6.30.

As for `CN1CCC2CN(c3ncc(-c4ccc(-c5cn[nH]c5)cc4O)nn3)CC2C1` (centres unmarked) [Cpd 166, 2-[3-(5-methyloctahydro-2H-pyrrolo[3,4-c]pyridin-2-yl)-1,2,4-triazin-6-yl]-5-(1H-pyrazol-4-yl)phenol], the pIC50 was no less than 7.00.

Take `NC1CN(c2ncc(-c3ccc(-c4cn[nH]c4)cc3O)nn2)CC12COC2` (centres unmarked) [Cpd 334, 2-[3-(8-amino-2-oxa-6-azaspiro[3.4]octan-6-yl)-1,2,4-triazin-6-yl]-5-(1H-pyrazol-4-yl)phenol]: the pIC50 is 5.52 to 6.00. Regarding `Cc1cnc(-c2ccc(-c3cnc(N(C)C4CC(C)(C)NC(C)(C)C4)nn3)c(O)c2)o1` [Cpd 1, 5-(5-methyl-1,3-oxazol-2-yl)-2-{3-[methyl(2,2,6,6-tetramethylpiperidin-4-yl)amino]-1,2,4-triazin-6-yl}phenol], the negative-log IC50 (pIC50) was less than 6.30. In the case of `CN(c1ncc(-c2ccc(-n3ncc4ccncc43)cc2O)nn1)C1CC(C)(C)NC(C)(C)C1` [Cpd 381, 2-{3-[methyl(2,2,6,6-tetramethylpiperidin-4-yl)amino]-1,2,4-triazin-6-yl}-5-(1H-pyrazolo[3,4-c]pyridin-1-yl)phenol] it was no less than 7.00; in that of `Cn1ccc(-c2ccc(-c3cnc(OC4CC(C)(C)NC(C)(C)C4)nn3)c(O)c2)n1` [Cpd 108, 5-(1-methyl-1H-pyrazol-3-yl)-2-{3-[(2,2,6,6-tetramethylpiperidin-4-yl)oxy]-1,2,4-triazin-6-yl}phenol], less than 6.30; in that of `CC(C)NC1CCN(c2ncc(-c3ccc(-n4ccnc4)cc3O)nn2)C1` (centres unmarked) [Cpd 331], 6.30 to 7.00.

`CC1(C)C[C@H](Nc2ncc(-c3ccc(-c4cn[nH]c4)cc3O)nn2)[C@H](F)C(C)(C)N1` [Cpd 322, 2-(3-{[(3S,4S)-3-fluoro-2,2,6,6-tetramethylpiperidin-4-yl]amino}-1,2,4-triazin-6-yl)-5-(1H-pyrazol-4-yl)phenol] gave a negative logarithm of the IC50 (pIC50) of no less than 7.00.
